Article PMC7891422, “Tryptophan Analogues with Fixed Side‐Chain Orientation: Expanding the Scope” (Chembiochem, 2020)
pEC50: −log10 of the molar value.

Molecular target: T1, ghrelin receptor (Homo sapiens, UniProt Q92847)
T1 construct: expressed in transfected cells; host or cells: COS7 cells (stably transfected)
Experiment: IP‐One assay (Cisbio IP-One Gq kit), inverse agonist activity
Format: cell-based
Conditions: mean±SEM of at least two independent experiments
Description: The four peptides and two known inverse agonists were tested towards their activity on the ghrelin receptor that was stably transfected in COS7 cells and examined in the Cisbio IP‐One assay as described in the supplementary section.
The assay was carried out in COS7 cells that were stably transfected with the ghrelin receptor. Data are the mean ±SEM of at least two independent experiments performed in triplicate.
IP-One assay COS7 cells stably transfected with the ghrelin receptor fused C-terminally to eYFP were cultured in a humidified atmosphere at 37 °C and 5% CO2 in Dulbecco's modified Eagle's medium with higher glucose supplemented with 10% (v/v) FCS and 0.4 mg/ml hygromycin B. Cisbio IP-One Gq assay kit was used according to previous description.[4] Shortly, 10000 cells/well were seeded out in a 384-well flat white plate and on the next day, stimulation was carried out in triplicates for 3h. 3 µl IP1-d2 and 3 µl Ab-cryptate were added and incubated on a tumbler for 60 min. Fluorescence was measured at 620 nm and 665 nm. HTRF ratio was calculated as the ratio 665/620. Obtained data were analyzed with GraphPad Prism 5.0 (GraphPad Software, San Diego, USA)
Emax is the efficacy of the peptide and represents the difference between constitutive activity and activity at maximal effect of the peptide. EC50 is the peptide concentration at half-

T1 sequence (Q92847 whole entry, species assumed): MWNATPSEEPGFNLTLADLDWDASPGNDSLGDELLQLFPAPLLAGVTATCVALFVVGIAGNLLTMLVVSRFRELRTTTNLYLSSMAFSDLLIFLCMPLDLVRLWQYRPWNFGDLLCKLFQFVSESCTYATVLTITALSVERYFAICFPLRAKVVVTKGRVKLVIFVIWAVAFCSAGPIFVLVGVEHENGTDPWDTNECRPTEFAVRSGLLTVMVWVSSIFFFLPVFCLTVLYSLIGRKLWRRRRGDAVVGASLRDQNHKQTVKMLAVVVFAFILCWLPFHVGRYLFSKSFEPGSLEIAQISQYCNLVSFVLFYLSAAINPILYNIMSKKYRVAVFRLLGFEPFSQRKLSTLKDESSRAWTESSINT

In the case of CC(C)C[C@H](NC(=O)[C@H](CC(C)C)NC(=O)[C@@H](Cc1c[nH]c2ccccc12)NC(=O)[C@H](Cc1ccccc1)NC(=O)[C@@H](Cc1c[nH]c2ccccc12)NC(=O)[C@@H](N)CCCCN)C(N)=O [Peptide 4, KwFwLL‐NH2], the “E max±SEM” value (efficacy = difference between constitutive activity and activity at maximal effect, normalized to KbFwLL‐NH2 (3)) was 66±3 Δ% and the pEC50 (inverse agonism, COS7 cells stably transfected with ghrelin receptor-eYFP, 3 h stimulation) was 6.63.
